How the values were obtained:
Format in all cases: cell-based, human
A549 cells [1] = assay: MMP detection by JC-1; settings: A549, 10, 20 and 50 nM, 12 h
Source text: (§1) The intrinsic mitochondrial pathway is one of the most well-studied mechanisms relevant to cell apoptosis. ROS accumulation and mitochondrial membrane potential (MMP) alteration play crucial roles in this pathway. In this study, a fluorescent dye including DCFH-DA and JC-1 was used to monitor the intracellular ROS and MMP, respectively.
(§2) Figure 5 ROS accumulation and MMP alteration induced by compound 14b. (A,B) The intracellular ROS detection by DCFH-DA after A549 cells treated with compound 14b at indicated concentrations for 12 h. (C,D) The detection of MMP monitored by JC-1 dye after A549 cells treated with compound 14b at the concentrations of 10, 20 and 50 nM for 12 h. […]
(§3) samples were fixed in ice-cold 70% ethanol overnight and removed with ice-cold PBS for three times. […] After the incubation, the prepared cell samples were immediately analyzed. Almost 10,000 events were detected by flow cytometry (Beckman Coulter, CytoFlex LX). The data regarding the number of cells in different phases of the cell cycle were or apoptotic cells were analyzed by […]
(§4) Caspase-3 activity was measured according to the manufacturer ’s instructions using a GreenNuc™ Caspase-3 assay kit for live cells (Beyotime, China). […] After incubation, the fluorescence intensity (excitation wavelength:
(§5) 485 nm, emission wavelength: 515 nm) was recorded using a multifunctional microplate reader (Thermo Scientific, Varioskan LUX). […]

caspase 3 = caspase 3 activity evaluation; settings: A549, 10, 20 and 50 nM
Experimental: To further elucidate the mechanism of cell death caused by the cytotoxicity of compound 14b, the Hoechst 33342 fluorochrome was used to observe the nucleus morphology, Annexin V-FITC double staining was performed to distinguish the apoptotic cells, and the caspase 3 colorimetric assay kit was used to detect the activity of caspase 3. […] At the early stage of apoptosis, different types of cells turn phosphatidylserine (PS) out toward the cell surface, that is, the outside of the cell membrane, which can be selectively marked with Annexin V. Additionally, in the late stage of apoptosis, the integrity of cell membrane is lost and can be stained with PI. […] Finally, considering the activation of caspase 3 is a central event in the process of apoptosis, the activity of caspase 3 was also evaluated.
Figure 4 Induction of apoptosis by compound 14b. […] (B) The percentages of cells in each apoptosis quantitated by flow cytometry through Annexin V-FITC double staining analysis. […] (C) The caspase 3 activity detected by the caspase 3 colorimetric assay kit after A549 cells were treated with compound 14b at concentrations of 10, 20 and 50 nM for 24 h. […]
samples were fixed in ice-cold 70% ethanol overnight and removed with ice-cold PBS for three times. […] After the incubation, the prepared cell samples were immediately analyzed. […]

A549 cells [2] = assay: intracellular ROS detection by DCFH-DA; settings: A549, 10, 20 and 50 nM, 12 h
Source text: as §1, §2, §3, §4, §5

In the case of `COc1ccc(C(=O)c2ccc3c(ccn3C)c2)c2c1C=CC(C)(C)O2` [compound 14b, (5-methoxy-2,2-dimethyl-2H-chromen-8-yl)(1-methyl-1H-indol-5-yl)methanone], the “MMP, ratio of JC-1 aggregates to monomers” value (A549 cells [1]) was “remarkably decreased”, the “activity of caspase 3” value (caspase 3) was “significantly activated and increased in a dose- and time-dependent manner” and the “level of ROS” value (A549 cells [2]) was “significantly rose abruptly in a dose-dependent manner”.
